The values that follow come from patent US20200339651A1, “METHODS FOR B CELL PRECONDITIONING IN CAR THERAPY” (Novartis AG, priority 2014, published 2020).

One series deals with huCART19 cells. Description: CART proliferation in 4 day co-culture with Nalm-6 cells in the presence of RAD001. The format is cell-based, human. An excerpt:
A humanized, anti-human CD19 CAR (huCART19) lentiviral transfer vector was used to produce the genomic material packaged into VSVg pseudotyped lentiviral particles. The amino acid and nucleotide sequence of the humanized anti-human CD19 CAR (huCART19) is CAR 1, ID 104875 described in PCT publication, WO2014/153270, filed Mar. 15, 2014, and is designated SEQ ID NOs. 85 and 31 therein.
Lentiviral transfer vector DNA is mixed with the three packaging components VSVg env, gag/pol and rev in combination with lipofectamine reagent to transfect Lenti-X 293T cells. Medium is changed after 24 h and 30 h thereafter, the virus-containing media is collected, filtered and stored at −80° C. CARTs are generated by transduction of fresh or frozen naïve T cells obtained by negative magnetic selection of healthy donor blood or leukopak. T cells are activated by incubation with anti-CD3/anti-CD28 beads for 24 h, after which viral supernatant or concentrated virus (MOI=2 or 10, respectively) is added to the cultures. The modified T cells are allowed to expand for about 10 days. The percentage of cells transduced (expressing the CARs on the cell surface) and the level of CAR expression (relative fluorescence intensity, Geo Mean) are determined by flow cytometric analysis between days 7 and 9. The combination of slowing growth rate and T cell size approaching ˜350 fL determines the state for T cells to be cryopreserved for later analysis.
To evaluate the functionality of CARTs, the T cells are thawed and counted, and viability is assessed by Cellometer. The number of CAR-positive cells in each culture is normalized using non-transduced T cells (UTD). The impact of RAD001 on CARTs was tested in titrations with RAD001, starting at 50 nM. The target cell line used in all co-culture experiments is Nalm-6, a human pre-B cell acute lymphoblastic leukemia (ALL) cell line expressing CD19 and transduced to express luciferase.
For measuring the proliferation of CARTs, T cells are cultured with target cells at a ratio of 1:1. […] The number of T cells is assessed by flow cytometry using counting beads as reference.

Series [1] can be described thus: Pharmacokinetics of RAD001 in the blood of NSG mice with NALM6 tumors. The format is in vivo. As to the method:
Diamonds denote the […] dose of RAD001; squares denote the 1 mg/kg dose of RAD001; triangles denote the 3 mg/kg dose of RAD001; and x's denote the 10 mg/kg dose of RAD001.
(§1) A concentrated micro-emulsion of 50 mg equal to 1 mg RAD001 was formulated and then resuspended in D5W (dextrose 5% in water) at the time of dosing. Mice were orally dosed daily (via oral gavage) with 200 μl of the desired doses of RAD001.
Mice were dosed daily with RAD001 starting 7 days post tumor implantation. Dosing groups were as follows: 0.3 mg/kg, 1 mg/kg, 3 mg/kg, and 10 mg/kg. Mice were bled on days 0 and 14 following the first and last dose of RAD001, at the following time points for PK analysis: 15 minutes, 30 minutes, 1 hour, 2 hours, 4 hours, 8 hours, 12 hours, and 24 hours.

In a further series the test system is NALM6-luc tumors. Briefly: NALM6-luc tumor growth in NSG mice with daily RAD001 dosing. The format is in vivo. The note with it: daily oral dosing of RAD001 alone at 0.3, 1, 3, and 10 mg/kg. As to the method: FIG. 8 depicts tumor growth measurements of NALM6-luc cells with daily RAD001 dosing at 0.3, 1, 3, and 10 mg/kg (mpk) or vehicle dosing. Circles denote the vehicle; squares denote the 10 mg/kg dose of RAD001; triangles denote the 3 mg/kg dose of RAD001, inverted triangles denote the 1 mg/kg dose of RAD001; and diamonds denote the 0.3 mg/kg dose of RAD001.
The NALM6 human acute lymphoblastic leukemia (ALL) cell line was developed from the peripheral blood of a patient with relapsed ALL. The cells were then tagged with firefly luciferase. These suspension cells grow in RPMI supplemented with 10% heat inactivated fetal bovine serum.
6 week old NSG (NOD.Cg-Prkdc^scidIl2rg^tm1Wjl/SzJ) mice were received from the Jackson Laboratory (stock number 005557).
NALM6-luc cells were grown and expanded in vitro in RPMI supplemented with 10% heat inactivated fetal bovine serum. The cells were then transferred to a 15 ml conical tube and washed twice with cold sterile PBS. NALM6-luc cells were then counted and resuspended at a concentration of 10×10^6 cells per milliliter of PBS. The cells were placed on ice and immediately (within one hour) implanted in the mice. NALM6-luc cells were injected intravenously via the tail vein in a 100 μl volume, for a total of 1×10^6 cells per mouse. […]

The next series concerns huCAR19 CAR T cells. Briefly: In vivo proliferation of humanized CD19 CART cells with and without RAD001 dosing. Also noted: species or system NSG mice. On the procedure:
Circles denote PBS; squares denote huCTL019; triangles denote huCTL019 with 3 mg/kg RAD001; inverted triangles denote huCTL019 with 0.3 mg/kg RAD001; diamonds denote huCTL019 with 0.03 mg/kg RAD001; and circles denote huCTL019 with 0.003 mg/kg RAD001.
Mice were administered 5×10^6 CAR T cells 7 days after tumor implantation. Cells were partially thawed in a 37 degree Celsius water bath and then completely thawed by the addition of 1 ml of cold sterile PBS to the tube containing the cells. The thawed cells were transferred to a 15 ml falcon tube and adjusted to a final volume of 10 mls with PBS. The cells were washed twice at 1000 rpm for 10 minutes each time and then counted on a hemocytometer. T cells were then resuspended at a concentration of 50×10^6 CAR T cells per ml of cold PBS and kept on ice until the mice were dosed. The mice were injected intravenously via the tail vein with 100 μl of the CAR T cells for a dose of 5×10^6 CAR T cells per mouse. Eight mice per group were treated either with 100 μl of PBS alone (PBS), or humanized CD19 CAR T cells.
as §1
Based on these doses, huCAR19 CAR T cells were dosed with and without RAD001 to determine the proliferative ability of these cells. The highest dose used was 3 mg/kg based on the levels of RAD001 in the blood 24 hours after dosing. As the concentration of RAD001 was above 10 nM 24 hours after the final dose of RAD001, several lower doses of RAD001 were used in the in vivo study with CAR T cells. The CAR T cells were dosed IV one day prior to the start of the daily oral RAD001 dosing. Mice were monitored via FACS for T cell expansion.

Regarding `CO[C@H]1C[C@@H]2CC[C@@H](C)[C@@](O)(O2)C(=O)C(=O)N2CCCC[C@H]2C(=O)O[C@H]([C@H](C)C[C@@H]2CC[C@@H](OCCO)[C@H](OC)C2)CC(=O)[C@H](C)/C=C(\C)[C@@H](O)[C@@H](OC)C(=O)[C@H](C)C[C@H](C)/C=C/C=C/C=C/1C` [RAD001, (1R,9S,12S,15R,16E,18R,19R,21R,23S,24E,26E,28E,30S,32S,35R)-1,18-dihydroxy-12-{(1R)-2-[(1S,3R,4R)-4-(2-hydroxyethoxy)-3-methoxycyclohexyl]-1-methylethyl}-19,30-dimethoxy-15,17,21,23,29,35-hexamethyl-11,36-dioxa-4-aza-tricyclo[30.3.1.04,9]hexatriaconta-16,24,26,28-tetraene-2,3,10,14,20-pentaone], the “proliferation of huCART19 cells compared with no RAD001” value with huCART19 cells (0.0032 and 0.016 nM RAD001, 4 day co-culture with Nalm-6) is listed as “proliferation was higher than observed without the addition of RAD001”. The “expansion of huCART19 cells” value in the series with huCART19 cells (less than 0.016 nM of RAD001, 4 day co-culture with Nalm-6, 1:1) is on record as “expanded”. Further, the “proliferation of CAR-expressing, transduced T cells” value with huCART19 cells (low doses of RAD001, cell culture system) was “enhanced”. Further, the “concentration of RAD001” value in series [1] (24 hours after the final dose of RAD001) was “above 10 nM”. The concentration at 24 h in series [1] (NSG, mouse, whole blood, day 0, 24 hours after dosing, lowest dose tested (0.3 mg/kg), oral) was above 10 nM. For the same compound, in series [1] (day 14, 24 hours after dosing, lowest dose tested (0.3 mg/kg), oral), the “RAD001 concentration in the blood” value is reported as “above 10 nm”. Besides, the “stability in the blood” value in series [1] (tumor bearing mice) is reported as “fairly stable”. For the same compound, the “growth of NALM6-luc tumors” value with NALM6-luc tumors is “did not have an impact”. Further, the “CAR T cell proliferation in vivo” value in the series with huCAR19 CAR T cells (RAD001 0.003 mg/kg daily, huCTL019) is reported as “enhancement in CAR T cell proliferation, above the normal level of huCAR19 proliferation”. In addition, in the series on huCAR19 CAR T cells (lowest doses of RAD001), the “enhanced proliferation of CD4+ CAR T cells compared with CD8+ CAR T cells” value was “more evident and prolonged”; the “proliferation of CD8+ CAR T cells” value is “enhanced proliferation can be seen at early time points”. Also, the “proliferation of the CAR T cells in vivo” value in the series with huCAR19 CAR T cells (lowest doses of RAD001, daily oral) is “enhanced proliferation”.
